In patent US20260042734A1, “HETEROCYCLIC RING-SUBSTITUTED AROMATIC COMPOUND, PREPARATION METHOD THEREFOR, AND USE THEREOF” (SHANGHAI HENLIUS BIOTECH, INC., priority 2023, published 2026) one finds IC50 and inhibition data, which are given here for 5 compounds.

Usually IC50 stands for the concentration needed to halve the response being measured. Low readings indicate greater potency in that assay, high ones weaker potency in that assay. For orientation: inhibition means the percentage by which the read-out fell short of the control.

Some results are limits rather than exact numbers.

This assay addresses human Kv1.3 (hKv1.3) channels (Homo sapiens (Human), UniProt P22001). Briefly: Electrophysiological (whole-cell patch clamp) determination of inhibitory activity on Kv1.3 channels. Type of assay: cell-based. Conditions: HEK293T cells expressing hKv1.3; for IC50: Hill fit of peak current inhibition. On the procedure:
Test Example 1: Determination of Inhibitory Activity of Compounds on Kv1.3 (hKv1.3) Channels
Electrophysiological Testing
Potassium currents were measured using HEK293T cells expressing human Kv1.3 (hKv1.3) channels.
Prior to the start of electrophysiological experiments, Kv1.3 cell lines should be maintained within 70% of the maximum density in the logarithmic growth phase. All reagents should be pre-warmed to 37° C. before use. • 1) Aspirate the spent medium from the 6 cm culture dish. • 2) Add 1 mL of PBS, gently rock the dish to rinse the bottom, and then remove the PBS. • 3) Add 1 mL of trypsin, and gently rock the dish to ensure the trypsin covers all the cells. • 4) Incubate at 37° C. for 2-3 minutes, and then gently pipette the cells to suspend the adherent cells. • 5) Transfer the cell suspension to a new centrifuge tube and centrifuge at 1000 rpm for 5 minutes. Adjust the cell concentration to 2×10^3 cells/mL, and then seed 300 μL of the cell suspension into each well of a 24-well plate containing cell climbing slides. Perform patch clamp experiments after the cells adhered properly.
The intracellular and extracellular solutions used were designed to mimic the cell physiological ionic composition.
Kv1.3 extracellular solution: 137 mM NaCl, 1 mM MgCl2·6H2O, 4 mM KCl, 1.8 mM CaCl2·2H2O, 10 mM D-Glucose, 10 mM HEPES, pH adjusted to 7.4 with NaOH.
Kv1.3 intracellular solution: 140 mM KCl, 10 mM EGTA, 5 mM MgCl2·6H2O, 10 mM HEPES, […], pH adjusted to 7.2 with KOH.
Test Compound Dissolution
• 1) The test compound was dissolved in DMSO to prepare a 30 mM stock solution. • 2) The stock solution of the test compound was serially diluted with DMSO to obtain secondary stock solutions at concentrations of 300 μM, 100 μM, 30 μM, 10 μM, and 3 μM. • 3) 10 μL of each secondary stock solution was diluted into 10 mL of extracellular solution to achieve final concentrations of 300 nM, 100 nM, 30 nM, 10 nM, and 3 nM for electrophysiological testing.
Kv1.3 potassium current data were collected and stored on a computer using Patchmaster software via an EPC-10 amplifier. • 1) The cell climbing slide was removed from the cell culture dish using forceps, immersed with extracellular solution, and placed into the bath chamber on the stage of an inverted microscope. • 2) Glass micropipettes were pulled using a P-1000 micropipette puller, filled one-third of their volume with intracellular solution, and then mounted onto an electrode holder. • 3) Using a motorized micromanipulator (Scientifica-Double 1U), the recording electrode was brought into contact with the cell surface. […] The positive pressure was removed, and a negative pressure of 0.5 cm H2O was applied. It was observed that the sealing resistance increased rapidly until it reached the gigaseal. When the sealing resistance between the recording electrode and the cell membrane was >1 GΩ, negative pressure was applied to rupture the membrane to form the whole-cell recording mode. After the ruptured membrane stabilized, the membrane capacitance (Cs) and series resistance (Rs) were compensated. • 4) Stimulation procedure: the cell was voltage-clamped at −80 mV, depolarized to 40 mV for a duration of 200 ms, and then repolarized to −80 mV. Currents were recorded every 10 s. • 5) Kv1.3 potassium channel currents were recorded at room temperature prior to drug application. After the control current value reached a steady state (indicated by overlapping of the four most consecutive current traces), cumulative drug application was performed. The negative control (0.1% DMSO) was applied first, followed by […] of the drugs.
Raw Kv1.3 current peak data were extracted from PatchMaster software. The current inhibition rate was calculated as follows: Peak current inhibition rate=((1−(Peak current compound)/(Peak current vehicle))). […]
Background: Patch clamp records ionic current or voltage across a cell membrane.

Sequence of human Kv1.3 (hKv1.3) channels (P22001 whole entry): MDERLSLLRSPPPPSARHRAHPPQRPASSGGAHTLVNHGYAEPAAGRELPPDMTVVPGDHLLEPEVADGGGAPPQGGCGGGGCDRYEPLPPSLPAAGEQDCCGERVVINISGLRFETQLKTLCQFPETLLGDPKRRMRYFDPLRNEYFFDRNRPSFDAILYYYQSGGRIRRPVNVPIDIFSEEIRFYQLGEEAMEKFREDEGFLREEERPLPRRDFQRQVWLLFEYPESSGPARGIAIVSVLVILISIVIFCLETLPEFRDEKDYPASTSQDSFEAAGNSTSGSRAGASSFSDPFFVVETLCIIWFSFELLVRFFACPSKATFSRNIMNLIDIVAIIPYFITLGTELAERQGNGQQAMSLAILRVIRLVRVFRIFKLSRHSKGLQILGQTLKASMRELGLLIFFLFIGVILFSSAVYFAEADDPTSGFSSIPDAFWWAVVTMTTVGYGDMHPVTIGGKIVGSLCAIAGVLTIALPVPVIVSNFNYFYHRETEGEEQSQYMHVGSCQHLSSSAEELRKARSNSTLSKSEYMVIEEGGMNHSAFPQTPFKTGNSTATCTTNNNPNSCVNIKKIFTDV

`OCCCCN1C[C@H](c2c(O)ccc(Cl)c2Cl)CC1=S` [Compound 130-1, (S)-4-(2,3-Dichloro-6-hydroxyphenyl)-1-(4-hydroxybutyl)pyrrolidine-2-thione]: the IC50 was at most 5 nM.
On the same count and under the same terms, the value for `Oc1ccc(Cl)c(Cl)c1[C@@H]1CC(=S)N(c2cnn3c2CCC3)C1` [Compound 159-1, (S)-4-(2,3-Dichloro-6-hydroxyphenyl)-1-(5,6-dihydro-4H-pyrrolo[1,2-b]pyrazol-3-yl)pyrrolidine-2-thione] was 5 to 10 nM.
`O=C1C[C@@H](c2c(O)ccc(Cl)c2Cl)CN1CCCO` [Compound W1, reference compound]: the IC50 lay in the range of 10 to 30 nM. Besides, the inhibition at 0.01 µM (HEK-293T, compound concentration 10 nM, peak current inhibition, read-out: 10 nM inhibition rate (Kv1.3)) was in the range of 25 to 50%.
Turning to `NCCCN1C[C@H](c2c(O)ccc(Cl)c2Cl)CC1=O` [Compound W2, reference compound], the IC50 lay in the range of 10 to 30 nM.
For “(S)-4-(2,3-Dichloro-6-hydroxyphenyl)-1-(1- methyl-1H-pyrazol-4-yl)pyrrolidine-2- thione [Compound 40-1]”, the IC50 is at most 5 nM.
